Where two headings read alike, the source gives them in different places.
Columns and labels:
[1] = test system: Isolated Chicken Hepatocytes; test: Inhibition of lipogenesis (14C acetate incorporation) in isolated chicken hepatocytes; type: cell-based; conditions: for inhibition at 0.01 µM / inhibition at 0.05 µM / inhibition at 0.25 µM: Gallus gallus, Hepatocyte, 2 h, Test 1, read-out: percent change compared to control, 14C acetate incorporation in fatty acids; for antilipogenic activity relative to clenbuterol / antilipogenic activity relative to isoproterenol: chicken hepatocytes
Method: Determination of anti-lipogenic activity in hepatocytes
Hepatocytes were isolated from chicken liver using the procedure for adipocytes and incubated for 2 hours at 37° C. in the presence of ^14 C acetate and test compounds. […] Isoproterenol, at the same concentrations, was used as a positive control. After incubation, 8 ml Doles reagent (isopropanol:hexane:H2 SO4, 40:10:1) was added and incubation vials were shaken at room temperature for 30 minutes. Vial contents were poured into 50 ml screw-cap tubes. Vials were then rinsed with 6 ml hexane which was poured into the appropriate 50 ml tube. Tubes were shaken by hand, 10 ml H2 O was added, and tubes were shaken again. After phase separation, 2 ml of the upper (hexane) phase was removed to scintillation vials. Hexane was evaporated by a gentle air flow and the remaining lipids were resuspended in 10 ml Scinti Verse II. ^14 C was counted in a Packard liquid scintillation counter. Data are reported as CPM of ^14 C acetate incorporated into total lipids.

[2] = test system: Isolated Swine Adipocytes; test: Stimulation of lipolysis (glycerol production) in isolated swine adipocytes; type: cell-based; conditions: Sus scrofa, Adipocyte, 2 h
Method: (§1) Fat was collected from freshly killed animals as follows: epididymal and perirenal fat from 150 to 200 g male rates; perirenal fat from 20 to 25 kg whether lambs, and perirenal and omental fat from 35 to 50 kg gilts. Immediately after collection, fat was placed in a siliconized beaker (all glassware was siliconized) containing Krebs-Ringer bicarbonate solution (KRB; pH 7.4) at 37° C. Fat was transferred to a clean beaker and finely chopped with scissors. Chopped fat was then used as such (whole adipose preparation) or treated with collagenase (isolated adipocytes).
(§2) Chopped fat was placed in a shaker containing 70 ml cell dispersion medium (CDM; 5 mM glucose, 0.1% collagenase, 4% bovine serum albumin (BSA), in KRB) and incubated at 37° C. for 1 hour with gentle shaking. Fat was then filtered to remove clumps and washed 4 times with washing medium (WM; 2.5 mM glucose, 1% BSA, in KRB) and 1 time with final suspension medium (FSM; 2.5 mM glucose, 2% essentially fatty acid free BSA, in KRB). Isolated adipocytes were then resuspended in the required amount of FSM (1 ml/flask, 3 flasks/treatment).
(§3) Whole adipose tissue from the rat (0.3 ml) or isolated adipocytes from sheep or swine (1 ml) were placed in plastic scintillation vials containing FSM (1.7 or 1 ml, respectively) and test compounds, and incubated at 37° C. for 2 hours. […] Isoproterenol, at the same concentrations, was used as a positive control. After incubation, media was removed and assayed for glycerol by a fluorometric modification of the method of Wieland (1974. Glycerol UV-method. pp. 1404. In: Bergmeyer (Ed.) Methods of Enzymatic Analysis. Verlag Chemie Weinham, Academic Press, New York).

[3] = test system: Isolated Ovine Adipocytes; test: Stimulation of lipolysis (glycerol production) in isolated ovine adipocytes; type: cell-based, sheep; conditions: for activation at 0.05 µM / activation at 0.01 µM: Ovis aries, Adipocyte, 2 h
Method: as §1, §2, §3

Rat Adipose Tissue = test: Stimulation of lipolysis (glycerol production) in chopped rat adipose tissue; type: cell-based; conditions: Rattus norvegicus, 2 h
Method: as §1
as §3, with “York). […]” for “York).”

[4] = In vivo testing in rats: growth, feed conversion and carcass composition; parameters: species or system rat (male Charles River CD); conditions: in diet, dose equivalent to 20 ppm clenbuterol (clenbuterol: 10)
Source text: Eighty intact, male Charles River CD rats, 75-90 g, were housed and maintained on rat chow and water ad libitum. After four days acclimation ten rats per group were randomized by weight to treatment and pen. Compounds to be tested were premixed and added to ground rat chow using doses equivalent to 20 ppm of clenbuterol on a molecular weight basis. It had previously been determined 10 ppm of clenbuterol was the minimum dose needed to give maximum improvements in gain and feed conversion. Therefore, the results of any compound tested should cause responses similar to clenbuterol if the compound has half or more the activity of clenbuterol.

[5] = Growth, feed conversion and carcass composition of broilers raised in floor pens for 7 weeks; type: in vivo; conditions: 7 weeks
Method: Compound V (bitolterol) was compared to clenbuterol for effects on growth, feed conversion and carcass composition of broilers raised in floor pens for 7 weeks. […] Bitolterol at the highest dose improved rate of gain 2.6% (P 0.01), feed conversion 3.8% (P 0.05) and carcass protein 4.9% (P 0.10).
Clenbuterol at 0.5 ppm in the diet was administered for 7 weeks to one group and only during the last 4 weeks to another group. […] Clenbuterol given for 7 weeks improved feed conversion 3.5% (P 0.05) and appeared to improve (not significant) rate of gain 0.4%, carcass weight 0.7% and carcass protein 4.0% and to decrease (not significant) carcass fat 7.1%.

[6] = Growth promoting activity / feed utilization in livestock (general statements); type: in vivo
[7] = Toxicity (general statement)
[8] = Test 1, read-out: percent increase compared to control, glycerol production
[9] = Test 1, 0.01 μM, read-out: percent increase compared to control, glycerol production
[10] = read-out: percent increase compared to control, glycerol production, Test 1
[11] = read-out: percent increase compared to control, glycerol production, Test 2

| SMILES | inhibition at 0.01 µM [1] | inhibition at 0.05 µM [1] | inhibition at 0.25 µM [1] | activation at 0.01 µM [2, 8] | activation at 0.05 µM [2, 8] | activation at 0.25 µM [2, 8] | activation at 0.05 µM [3, 8] | activation at 0.01 µM (Rat Adipose Tissue; [8]) | activation at 0.05 µM (Rat Adipose Tissue; [8]) | activation at 0.25 µM (Rat Adipose Tissue; [8]) | Gain ([4]; Test 1, control 7.3) | Feed Intake ([4]; Test 1, control 18.6) | Weight ([4]; Test 1, control 191.8) | Carcass Composition % of Change over Control, Fat ([4]; Test 1) | Carcass Composition % of Change over Control, Protein ([4]; Test 1) | activity in all species under consideration [6] | antilipogenic activity relative to clenbuterol [1] | antilipogenic activity relative to isoproterenol [1] | activation at 0.01 µM [3, 9] | also measured |
| --- | --- | --- | --- | --- | --- | --- | --- | --- | --- | --- | --- | --- | --- | --- | --- | --- | --- | --- | --- | --- |
| Cc1ccc(C(=O)Oc2ccc(C(O)CNC(C)(C)C)cc2OC(=O)c2ccc(C)cc2)cc1 (centres unmarked) [Compound V, Bitolterol] | 0% | 34% | 64.6% | 7% | 47% | 147% | 435% | 17% | 33% | 111% | 7.3 g/day | 18.7 g/day | 192.2 g | -4.3% | 3.1% | high activity in all species under consideration | – | – | – | percent increase compared to control, glycerol production ([3]; Test 1, 0.01 μM): inactive; carcass fat (in words) ([5]; 0.5, 1.0 and 2.0 ppm in diet): did not reduce carcass fat; rate of gain, feed conversion and carcass protein, dose response ([5]; 0.5, 1.0 and 2.0 ppm in diet): improved rate of gain, feed conversion and carcass protein in a dose-related manner; improvement of rate of gain ([5]; 2.0 ppm in diet (highest dose), P 0.01): 2.6%; improvement of feed conversion ([5]; 2.0 ppm in diet (highest dose), P 0.05): 3.8%; improvement of carcass protein ([5]; 2.0 ppm in diet (highest dose), P 0.10): 4.9%; responses compared with clenbuterol at 0.5 ppm ([5]; 2.0 ppm in diet): better than those observed with clenbuterol at 0.5 ppm; level of activity ([6]; in vivo): high level of activity; level of toxicity [7]: very low level of toxicity |
| CC(C)(Cc1ccccc1)NCC(O)c1ccc(O)c(NS(C)(=O)=O)c1 (centres unmarked) [I, Zinterol] | 45.2% | 61.3% | 66% | 87% | 100% | 53% | 960% | 90% | 129% | 281% | 7.8 g/day | 19.2 g/day | 199.1 g | -10.4% | 7.3% | high activity in all species under consideration | greater than 125 times | five times | 730% | – |
| CC(CCc1ccccc1)NCC(O)c1ccc(N)nc1 (centres unmarked) [IV] | 33.7% | 54.3% | 63.2% | 260% | 333% | 80% | – | 114% | 219% | 334% | – | – | – | – | – | high activity in all species under consideration | greater than 125 times | five times | 820% | Gain ([4]; Test 2, control 7.5): 8.4 g/day; Feed Intake ([4]; Test 2, control 19.3): 20.7 g/day; Weight ([4]; Test 2, control 202.3): 214.7 g; Carcass Composition % of Change over Control, Fat ([4]; Test 2): -16.1%; Carcass Composition % of Change over Control, Protein ([4]; Test 2): 5.0% |
| COc1ccc(CC(C)NCC(O)c2ccc(O)c(NC=O)c2)cc1 (centres unmarked) [IX, Formoterol] | – | – | – | – | – | – | – | – | – | – | 7.9 g/day | 19.1 g/day | 199.4 g | -10.4% | 10.6% | high activity in all species under consideration | – | – | – | activation at 0.01 µM [2, 10]: 207%; activation at 0.05 µM [2, 10]: 267%; activation at 0.25 µM [2, 10]: 187%; activation at 0.01 µM [2, 11]: 340%; activation at 0.05 µM [2, 11]: 600%; activation at 0.25 µM [2, 11]: 844%; activation at 0.01 µM ([3]; read-out: percent increase compared to control, glycerol production, Test 1, 0.01 μM): 675%; activation at 0.05 µM [3, 10]: 695%; activation at 0.01 µM (Rat Adipose Tissue; [10]): 42%; activation at 0.05 µM (Rat Adipose Tissue; [10]): 91%; activation at 0.25 µM (Rat Adipose Tissue; [10]): 258%; activation at 0.01 µM (Rat Adipose Tissue; [11]): 16%; activation at 0.05 µM (Rat Adipose Tissue; [11]): 70%; activation at 0.25 µM (Rat Adipose Tissue; [11]): 145% |
| C[C@H](CCc1ccccc1)NC[C@H](O)c1ccc(N)nc1 [α-R,1R compound] | – | – | – | – | – | – | – | – | – | – | – | – | – | – | – | – | – | – | – | activity compared with the other optical isomers of compound IV ([6]; in vivo): significantly more active than the most active of the other isomers |

Source: US4847302A, “Use of certain compounds in livestock food as growth promotants for better feed utilization and improved carcass composition” (Merck & Co., Inc., priority 1988, dated 1989)
